What was measured:
Format in all cases: functional
Onchocerca lienalis [1] = experiment: MMV: Percent motility assay at a compound concentration of 3.1e-6 M. Activity score legend: 3: Active, 2: Moderately active; 1: Inactive, 0: Toxic; conditions: at 3.1 µM
Onchocerca lienalis [2] = experiment: MMV: Percent motility assay at a compound concentration of 1.9e-7 M. Activity score legend: 3: Active, 2: Moderately active; 1: Inactive, 0: Toxic; conditions: at 0.19 µM
Onchocerca lienalis [3] = experiment: MMV: Percent motility assay at a compound concentration of 1.25e-5 M. Activity score legend: 3: Active, 2: Moderately active; 1: Inactive, 0: Toxic; conditions: at 12.5 µM
Onchocerca lienalis [4] = experiment: MMV: Percent motility assay at a compound concentration of 7.8e-7 M. Activity score legend: 3: Active, 2: Moderately active; 1: Inactive, 0: Toxic; conditions: at 0.78 µM

| SMILES | Motility (Onchocerca lienalis [1]) [%] | Motility (Onchocerca lienalis [2]) [%] | Motility (Onchocerca lienalis [3]) [%] | Motility (Onchocerca lienalis [4]) [%] |
| --- | --- | --- | --- | --- |
| COc1ccc(Nc2nc(N/N=C/c3ccc(O)cc3)nc(Nc3ccc([N+](=O)[O-])cc3)n2)cc1 | 100 | 100 | 100 | 100 |
| Cc1sc(NC(=O)c2ccco2)c(C(c2cccnc2)N2CCC(Cc3ccccc3)CC2)c1C (stereo not drawn) | 100 | 100 | 100 | 100 |
| O=C(NNc1cc(N2CCCC2)nc(N2CCCC2)n1)c1ccccc1 | 100 | 100 | 100 | 100 |
| COC(=O)c1ccc(Cl)c2c1C1C=CCC1C(c1cccc3ccccc13)N2 (stereo not drawn) | 100 | 100 | 100 | 100 |
| O=C(CCc1ccccc1)c1ccccc1OCC(O)CN1CCCCC1 (stereo not drawn) | 100 | 100 | 100 | 100 |
| OC1=C2C(=Nc3ccccc3SC2c2ccccc2)c2ccccc21 (stereo not drawn) | 100 | 100 | 100 | 100 |
| COC(=O)c1ccc(C2C3=C(O)CC(c4ccc(F)cc4)CC3=Nc3ccccc3N2C(=O)c2ccccc2)cc1 (stereo not drawn) | 100 | 100 | 100 | 100 |
| CC(=O)c1sc(NC(=O)Nc2ccc(C)cc2C)nc1C | 100 | 100 | 100 | 100 |
| Cn1c(C(=O)c2cccc3ccccc23)nc2ccccc21 | 100 | 100 | 100 | 100 |
| O=C(Nc1ccc(-c2nc3ccccc3[nH]2)cc1)c1ccc(Cl)c(Cl)c1 | 100 | 100 | 100 | 100 |
| OCCNc1nc(Nc2ccc(Cl)c(Cl)c2)nc2ccccc12 | 33.33 | 100 | 20 | 100 |
| Nc1ccc(-c2nc3cc(Oc4ccc(Oc5ccc6[nH]c(-c7ccc(N)cc7)nc6c5)cc4)ccc3[nH]2)cc1 | 100 | 100 | 100 | 100 |
| Cc1cc(N(C)C)nc(Nc2ccc(NC(=O)Nc3ccccc3)cc2)n1 | 100 | 100 | 100 | 100 |
| COc1cc(C(=O)ON=C(N)Cc2cccc3ccccc23)cc(OC)c1OC | 100 | 100 | 100 | 100 |
| Cc1ccc(Nc2nc(N)c3ccccc3n2)cc1Cl | 100 | 100 | 100 | 100 |
| CCc1ccc(CNCC(O)c2ccccc2)cc1.Cl (stereo not drawn) | 100 | 100 | 100 | 100 |
| Br.CCn1c2c(c(=N)c3c1CCC3)CCCC2 | 100 | 100 | 100 | 100 |
| Cc1ccc2c(C)nc(Nc3nc(C)cc(-c4ccccc4)n3)nc2c1 | 100 | 100 | 100 | 100 |
| CCCn1c(=N)c(C(=O)NC2CCCCC2)cc2c(=O)n3cccc(C)c3nc21 | 100 | 100 | 100 | 100 |
| Nc1ccn([C@@H]2O[C@H](CO)[C@@H](O)[C@H]2O)c(=O)n1 [CYTIDINE] | 100 | 100 | 100 | 100 |
| O=C(Nc1cccc(C2=NCCN2)c1)Nc1cccc(C2=NCCN2)c1 [IMIDOCARB] | 100 | 100 | 100 | 100 |
| CN(C)c1ccc(C(O)(c2ccc(N(C)C)cc2)c2ccc(N(C)C)cc2)cc1 [METHYLROSANILINE] | 100 | 100 | 100 | 66.66 |

Source: ChEMBL document CHEMBL3137381, “MMV Box Onchocerca lienalis screening set”
